Measurements: patent US20090317372A1, “SMALL MOLECULES FOR THE REDUCTION OF HIGH BLOOD GLUCOSE LEVEL” (priority 2008, published 2009)

How the values were obtained:
C57/BL/6 mice [1] = test: Glucose tolerance test with normal mice, dose and time dependence of CCcompound1; format: in vivo
Protocol: Female C57/BL/6 mice weighing 22-23-g and fasted for 14 hours prior to i.p. glucose administration (3-g/kg) were used. None of the animals received any food during the experiment other than glucose. The animals received i.p. injections of 2.0 or 4.5-mg/kg of CCcompound1 either 30 min, 60 min or 120 min prior to glucose administration. Blood samples were taken and glucose concentrations were immediately measured as described earlier. Each group included six animals. The data are the mean±std. dev. of 6 determinations, i.e. one determination with each of the six animals. “-min” indicates the length of period in minutes elapsed between the administration of CCcompound1 (first) and glucose (second).

mice with PC-3 tumor = test: Glucose tolerance test in the PC-3 tumor model, chronic and acute CCcompound1; format: in vivo
Protocol: (§1) The experimental PC-3 human tumors were developed in a homozygous line of C.B.-171 cr scid/scid adult female mice that were kept at specified pathogen free (SPF) hygienic level. Treatments with CCcompound1 (4.5 mg/kg) were started on day 12 after tumor implantation and conducted for 5+5 days with 2 treatment-free days inserted between the 2 series of treatments. A control group (10 mice) received no treatment, while another group (10 mice) received 4.5-mg/kg of CCcompound1 once every day between days 12-24. The results, shown in TABLE 8, indicate that between days 12 and 24 after tumor implantation, the prostate tumor caused about 6.9-g loss in lean body weight (4.1-g loss in total body weight). In contrast, animals treated with CCcompound1 actually gained 6.3-g lean body weight.
Tumors and cachexia are usually associated with insulin resistance. […] Both groups were starved for 14 hours and divided into two sub-groups; one subgroup remained untreated on day 25, another subgroup was administered 4.5-mg/kg of CCcompound1 60 min prior to administration of 3-g/kg of glucose. Blood samples were taken and blood glucose was analyzed as described earlier. […] In contrast, in animals that received chronic (C) treatment with CCcompound1 for 12 days, reduction in blood glucose level was clearly faster. Importantly, acute (A) treatment with CCcompound1 was almost as effective in cancer mice as in normal mice in reducing blood glucose level

PC-3 human tumors = test: PC-3 tumor/cachexia model: tumor weight and body weight; format: in vivo, mice
Protocol: as §1

C57/BL/6 mice [2] = test: Glucose tolerance test with normal mice (CC1, CC3, CC19); format: in vivo
Protocol: C57/BL/6 female mice weighing 22-23-g and fasted for 14 hours before intraperitoneal (i.p.) administration of glucose (3-g/kg) were used. None of the animals received any food during the experiment other than glucose. The animals received i.p. injections of 4.5-mg/kg of CCcompound1, CCcompound3, or CCcompound19 either 1 hour or 24 hours prior to glucose administration as indicated in TABLE 3. Blood samples were taken from the eyes (canthus), and glucose concentrations in whole blood samples were immediately measured with the Fast Glucose C test. Each group included six animals. The data, shown in TABLE 3, are the mean±std. dev. of 6 determinations, i.e. one determination with each of the six animals. In this and all subsequent experiments the values at 0 min reflect glucose concentration in blood samples collected 1-5 minutes prior to the administration of glucose.

C57/BL/6 mice [3] = test: Glucose tolerance test with normal mice, CCcompound1 and sub-optimal insulin; format: in vivo; conditions: CCcompound1 4.5-mg/kg i.p. 60 min and/or insulin 0.02 IU 15 min prior to glucose
Protocol: In this experiment, a sub-optimal dose of insulin (0.02 international unit-IU) was used to probe if CCcompound1 indeed can enhance the effect of insulin on blood glucose. Again C57/BL/6 female mice weighing 22-23-g and fasted for 14 hours prior to i.p. glucose administration (3-g/kg), were used. None of the animals received any food during the experiment other than glucose. The animals received i.p. injections of 4.5-mg/kg of CCcompound1 and/or 0.02 Unit insulin 60 min and 15 min prior to glucose administration, respectively. Blood samples were taken and glucose concentrations measured as indicated earlier. Each group included six animals. The data are the mean±std. dev. of 6 determinations, i.e. one determination with each of the six animals.

[4] = 4.5 mg/kg group, day 12 (start of treatment)
[5] = 4.5 mg/kg once daily days 12-24, day 24

Structure (SMILES): Cc1c(OCC(O)C[N+](C)(C)C)cc2c(=O)c3ccccc3sc2c1C.[Cl-] (centres unmarked) [CCcompound 1, [3-(3,4-Dimethyl-9-oxo-9H-thioxanthen-2-yloxy)-2-hydroxypropyl]trimethyl-ammonium chloride]
- Blood glucose (C57/BL/6 mice [1]; 2 mg/kg i.p. −30 min, 0 min): 1.30 ± 0.20 mM
- Blood glucose (C57/BL/6 mice [1]; 2 mg/kg i.p. −30 min, 30 min): 5.40 ± 0.45 mM
- Blood glucose (C57/BL/6 mice [1]; 2 mg/kg i.p. −30 min, 60 min): 4.15 ± 0.45 mM
- Blood glucose (C57/BL/6 mice [1]; 2 mg/kg i.p. −30 min, 120 min): 3.50 ± 0.30 mM
- Blood glucose (C57/BL/6 mice [1]; 2 mg/kg i.p. −30 min, 180 min): 2.80 ± 0.30 mM
- Blood glucose (C57/BL/6 mice [1]; 2 mg/kg i.p. −60 min, 0 min): 1.30 ± 0.30 mM
- Blood glucose (C57/BL/6 mice [1]; 2 mg/kg i.p. −60 min, 30 min): 5.70 ± 0.35 mM
- Blood glucose (C57/BL/6 mice [1]; 2 mg/kg i.p. −60 min, 60 min): 4.30 ± 0.30 mM
- Blood glucose (C57/BL/6 mice [1]; 2 mg/kg i.p. −60 min, 120 min): 3.70 ± 0.30 mM
- Blood glucose (C57/BL/6 mice [1]; 2 mg/kg i.p. −60 min, 180 min): 3.25 ± 0.35 mM
- Blood glucose (C57/BL/6 mice [1]; 4.5 mg/kg i.p. −30 min, 0 min): 1.50 ± 0.25 mM
- Blood glucose (C57/BL/6 mice [1]; 4.5 mg/kg i.p. −30 min, 30 min): 5.05 ± 0.20 mM
- Blood glucose (C57/BL/6 mice [1]; 4.5 mg/kg i.p. −30 min, 60 min): 3.55 ± 0.25 mM
- Blood glucose (C57/BL/6 mice [1]; 4.5 mg/kg i.p. −30 min, 120 min): 2.95 ± 0.25 mM
- Blood glucose (C57/BL/6 mice [1]; 4.5 mg/kg i.p. −30 min, 180 min): 1.95 ± 0.30 mM
- Blood glucose (C57/BL/6 mice [1]; 4.5 mg/kg i.p. −60 min, 0 min): 1.40 ± 0.25 mM
- Blood glucose (C57/BL/6 mice [1]; 4.5 mg/kg i.p. −60 min, 30 min): 5.25 ± 0.30 mM
- Blood glucose (C57/BL/6 mice [1]; 4.5 mg/kg i.p. −60 min, 60 min): 3.90 ± 0.20 mM
- Blood glucose (C57/BL/6 mice [1]; 4.5 mg/kg i.p. −60 min, 120 min): 3.20 ± 0.15 mM
- Blood glucose (C57/BL/6 mice [1]; 4.5 mg/kg i.p. −60 min, 180 min): 2.85 ± 0.15 mM
- Blood glucose (C57/BL/6 mice [1]; 4.5 mg/kg i.p. −120 min, 0 min): 1.35 ± 0.15 mM
- Blood glucose (C57/BL/6 mice [1]; 4.5 mg/kg i.p. −120 min, 30 min): 7.80 ± 0.40 mM
- Blood glucose (C57/BL/6 mice [1]; 4.5 mg/kg i.p. −120 min, 60 min): 5.90 ± 0.45 mM
- Blood glucose (C57/BL/6 mice [1]; 4.5 mg/kg i.p. −120 min, 120 min): 4.30 ± 0.40 mM
- Blood glucose (C57/BL/6 mice [1]; 4.5 mg/kg i.p. −120 min, 180 min): 3.00 ± 0.20 mM
- Glucose lowering effect (C57/BL/6 mice [1]; administered 120 min prior to glucose): practically ineffective
- Blood glucose (mice with PC-3 tumor; acute (A): 4.5-mg/kg 60 min prior to glucose on day 25, 0 min): 2.3 ± 0.2 mM
- Blood glucose (mice with PC-3 tumor; acute (A), 30 min): 5.5 ± 0.6 mM
- Blood glucose (mice with PC-3 tumor; acute (A), 60 min): 4.4 ± 0.7 mM
- Blood glucose (mice with PC-3 tumor; acute (A), 120 min): 3.5 ± 0.4 mM
- Blood glucose (mice with PC-3 tumor; chronic (C): 4.5-mg/kg daily days 12-24, 0 min): 1.8 ± 0.4 mM
- Blood glucose (mice with PC-3 tumor; chronic (C), 30 min): 7.1 ± 0.5 mM
- Blood glucose (mice with PC-3 tumor; chronic (C), 60 min): 6.5 ± 0.4 mM
- Blood glucose (mice with PC-3 tumor; chronic (C), 120 min): 4.9 ± 0.6 mM
- Blood glucose (mice with PC-3 tumor; chronic + acute (C + A), 0 min): 2.1 ± 0.5 mM
- Blood glucose (mice with PC-3 tumor; chronic + acute (C + A), 30 min): 5.1 ± 0.4 mM
- Blood glucose (mice with PC-3 tumor; chronic + acute (C + A), 60 min): 3.9 ± 0.4 mM
- Blood glucose (mice with PC-3 tumor; chronic + acute (C + A), 120 min): 3.1 ± 0.3 mM
- Body weight (lean) (PC-3 human tumors; [4]): 25.0 g
- Tumor weight (PC-3 human tumors; [4]): 0.2 ± 0.1 g
- Total weight (PC-3 human tumors; 4.5 mg/kg group, day 12 after tumor transplantation (start of treatment)): 25.2 ± 1.3 g
- Body weight (lean) (PC-3 human tumors; [5]): 30.3 g
- Total weight (PC-3 human tumors; [5]): 31.9 ± 2.5 g
- Tumor weight (PC-3 human tumors; [5]): 1.6 ± 0.4 g
- Gain in lean body weight (PC-3 human tumors; 4.5 mg/kg, between days 12 and 24): 6.3 g
- Reduction of tumor volume (PC-3 human tumors; 4.5 mg/kg, days 12-24): ~50%
- Blood glucose (C57/BL/6 mice [2]; 4.5-mg/kg i.p. 1 h prior to glucose 3-g/kg i.p., 0 min): 1.3 ± 0.3 mM
- Reduction of blood glucose level (C57/BL/6 mice [2]; 4.5-mg/kg i.p. 1 h prior to glucose, 30th min of test period): 33%
- Blood glucose (C57/BL/6 mice [2]; 4.5-mg/kg i.p. 1 h prior to glucose, 30 min): 5.4 ± 0.5 mM
- Blood glucose (C57/BL/6 mice [2]; 4.5-mg/kg i.p. 1 h prior to glucose, 60 min): 4.3 ± 0.4 mM
- Blood glucose (C57/BL/6 mice [2]; 4.5-mg/kg i.p. 1 h prior to glucose, 120 min): 2.8 ± 0.2 mM
- Blood glucose (C57/BL/6 mice [2]; 4.5-mg/kg i.p. 1 h prior to glucose, 180 min): 2.2 ± 0.2 mM
- Blood glucose (C57/BL/6 mice [2]; 4.5-mg/kg i.p. 24 h prior to glucose, 0 min): 1.4 ± 0.2 mM
- Blood glucose (C57/BL/6 mice [2]; 4.5-mg/kg i.p. 24 h prior to glucose, 30 min): 7.0 ± 0.7 mM
- Blood glucose (C57/BL/6 mice [2]; 4.5-mg/kg i.p. 24 h prior to glucose, 60 min): 5.2 ± 0.4 mM
- Blood glucose (C57/BL/6 mice [2]; 4.5-mg/kg i.p. 24 h prior to glucose, 120 min): 3.4 ± 0.3 mM
- Blood glucose (C57/BL/6 mice [2]; 4.5-mg/kg i.p. 24 h prior to glucose, 180 min): 2.8 ± 0.2 mM
- Glucose lowering effect (C57/BL/6 mice [2]; treatment 24 hours prior to glucose): smaller and not reproducible in additional experiments
- Blood glucose (C57/BL/6 mice [3]; 0 min): 1.8 ± 0.4 mM
- Blood glucose (C57/BL/6 mice [3]; 30 min): 5.1 ± 0.5 mM
- Blood glucose (C57/BL/6 mice [3]; 60 min): 4.1 ± 0.4 mM
- Blood glucose (C57/BL/6 mice [3]; 120 min): 3.3 ± 0.3 mM
